Laboratory results as given in patent US6709818B1, “Methods of diagnosing and treating hepatic cell proliferative disorders” (The Johns Hopkins University School of Medicine, priority 1999, dated 2004).
“Also recorded” adds a separate entry of the source.

Assays:
[1] = tested on: GSTP1 promoter alleles; experiment: Southern blot analysis of GSTP1 "CpG island" DNA hypermethylation in Hep3B cells treated with 5-aza-dC; format: cell-based, human; details: Hep3B HCC cells treated in vitro, 72 hours
Description: DNA isolated from Hep3B cells before and after exposure to 5-aza-dC in vitro was assessed for GSTP1 “CpG island” DNA hypermethylation using Southern blot analysis. Purified DNAs were digested first with HindIII and EcoRI and then extensively with the ^5-mC-sensitive restriction endonuclease BssHII. Digested DNAs were then electrophoresed on agarose gels, transferred to Zeta-Probe (DioRad) membranes, and then hybridized with ^32P-labeled GSTP1 cDNA DNA isolated from Hep3B HCC cells and from HCC and adjacent non-neoplastic tissues was also subjected to analysis for GSTP1 “CpG island” DNA hypermethylation using a ^5-mC-sensitive restriction endonuclease-polymerase chain reaction (PCR) strategy that permitted both detection of CpG dinucleotide methylation and simultaneous discrimination of maternal and paternal alleles in informative cases. […] To facilitate detection of the PCR amplification products, the downstream primer was end-labeled with [γ-^32P]ATP (Amersham) using T4 polynucleotide kinase (New England BioLabs). PCR was conducted by incubation at 95° C. for 1 min, 63° C. for 3 min, and 72° C. for 1.5 min, for 30 cycles followed by a final extension at 72° C. for 8 min. […]

[2] = tested on: GSTP1 mRNA expression in Hep3B HCC cells; experiment: Northern blot analysis of GSTP1 mRNA expression by Hep3B cells treated with 5-aza-dC; details: for GSTP1 mRNA expression (Northern blot): Hep3B HCC cells treated in vitro, 72 hours
[3] = tested on: GSTP1 expression in Tsu-Prl PCA cells; experiment: GSTP1 expression in Tsu-Prl PCA cells treated with 5-aza-dC; format: cell-based, human; details: Tsu-Prl PCA cells (unmethylated GSTP1 promoter alleles), treated as for Hep3B
Excerpt: Assessment of GSTP1 expression.

In the case of `Nc1ncn([C@H]2C[C@H](O)[C@@H](CO)O2)c(=O)n1` [5-aza-dC, 5-aza-deoxycytidine], the “GSTP1 "CpG island" / promoter allele methylation (Southern blot, BssHII digestion)” value [1] is reported as “appearance of unmethylated GSTP1 promoter alleles”, the “GSTP1 "CpG island" / promoter allele methylation (Southern blot, BssHII digestion)” value ([1]; listed as 5-aza-deoxycytidine) is reported as “reversed GSTP1 “CpG island” hypermethylation” and the “time at which GSTP1 mRNA expression began to appear” value ([2]; Hep3B HCC cells exposed for as long as 72 hours) is reported as at most 24 h. For the same molecule, the “GSTP1 mRNA expression (Northern blot)” value [2] was “reactivation of GSTP1 mRNA expression; also recorded: appearance of detectable GSTP1 mRNA”, the “GSTP1 mRNA expression (Northern blot)” value ([2]; listed as 5-aza-deoxycytidine) was “restored GSTP1 expression” and the “modulation of GSTP1 expression” value [3] was “no modulation of GSTP1 expression was evident”.
